The values below come from ChEMBL document CHEMBL1201862, “PubChem BioAssay data set” (2004).

Test systems include SNB-75; T47D; NCI-H226; SR; SK-MEL-5; HL-60; U-251; RPMI-8226; NCI/ADR-RES; HCT-116; SW-620; HOP-62; SK-MEL-28; MOLT-4; CAKI-1; OVCAR-3; NCI-H460; HCC 2998; NCI-H522.
What all share (assay): DTP human tumour cell line panel, 48 h

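How tested: cells in 96-well plates exposed to compound for 48 hours at five concentrations. Here, GI50 denotes the concentration required for 50% inhibition of growth.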 Active and inactive are the calls of the source. No stated cut-off is given here; in the data, active = GI50 up to about 1.1 µM and inactive = higher.

On to `O=C(O)C(Oc1nc(S)nc(S)n1)(c1ccc(Cl)cc1)c1ccc(Cl)cc1`, for which the GI50 in the experiment on SNB-75, with T47D, with NCI-H226, with SR, in the experiment on SK-MEL-5 and with HL-60 was > 100 µM (inactive) in each case. For the same compound, the GI50 with U-251, with RPMI-8226, in the experiment on NCI/ADR-RES, in the experiment on HCT-116, with SW-620 and in the experiment on HOP-62 was > 100 µM (inactive) each time. Also, the GI50 with SK-MEL-28 is > 100 µM (inactive); in the experiment on MOLT-4, > 100 µM (inactive); in the experiment on CAKI-1, > 100 µM (inactive); in the experiment with OVCAR-3, > 100 µM (inactive); with NCI-H460, > 100 µM (inactive); with HCC 2998, 92.7 µM (inactive). Also, in the experiment with NCI-H522, the GI50 was > 100 µM (inactive).
Regarding `CCN(C(=S)N[C@@H](Cc1ccccc1)C(=O)N[C@@H](CC(C)C)C(=O)OC)c1ccccc1`, the GI50 in the experiment with SNB-75 was > 100 µM (inactive); in the experiment with T47D it was > 100 µM (inactive); in the experiment on NCI-H226, > 100 µM (inactive); in the experiment with SR it was 24 µM (inactive); in the experiment with SK-MEL-5 it was > 100 µM (inactive); in the experiment with U-251, 50.7 µM (inactive). Further, the GI50 with RPMI-8226 was 75.9 µM (inactive); with NCI/ADR-RES, > 100 µM (inactive); in the experiment with HCT-116, 75 µM (inactive); in the experiment with SW-620, 50.6 µM (inactive); with HOP-62, > 100 µM (inactive); in the experiment with SK-MEL-28, > 100 µM (inactive). The GI50 with MOLT-4 was 23.4 µM (inactive); with CAKI-1 it was > 100 µM (inactive); in the experiment with OVCAR-3, > 100 µM (inactive); in the experiment on NCI-H460 it was 58.2 µM (inactive); in the experiment on HCC 2998, > 100 µM (inactive); in the experiment on NCI-H522, 55.6 µM (inactive).
Take `C=C1CC(CN2CCC(=O)NC2=O)(c2ccccc2)OC1=O` (configuration not stated): the GI50 is 18.1 µM (inactive) in the experiment on SNB-75; 3.13 µM (inactive) in the experiment on T47D; 15.6 µM (inactive) in the experiment on NCI-H226; 2.09 µM (inactive) in the experiment with SR; 12.4 µM (inactive) in the experiment on SK-MEL-5; 1.62 µM (inactive) in the experiment on HL-60. Also, the GI50 was 17.7 µM (inactive) with U-251; 2.19 µM (inactive) in the experiment with RPMI-8226; 11.6 µM (inactive) with NCI/ADR-RES; 3.35 µM (inactive) in the experiment with HCT-116; 1.94 µM (inactive) in the experiment with SW-620; 21.3 µM (inactive) in the experiment on HOP-62. The GI50 in the experiment on SK-MEL-28 is 13.4 µM (inactive); with MOLT-4, 2.25 µM (inactive); in the experiment on CAKI-1, 2.75 µM (inactive); in the experiment with OVCAR-3, 13 µM (inactive); in the experiment with NCI-H460 it was 19.4 µM (inactive); in the experiment on HCC 2998 it was 15 µM (inactive). Further, the GI50 in the experiment on NCI-H522 is 0.859 µM (active).
On to `Brc1cc2nn(-c3ccccc3)nc2c2nonc12`, for which the GI50 with SNB-75 is > 100 µM (inactive); in the experiment on T47D, 28.4 µM (inactive); in the experiment on NCI-H226, > 100 µM (inactive); in the experiment on SR it was > 100 µM (inactive); in the experiment with SK-MEL-5, > 100 µM (inactive); with HL-60, > 100 µM (inactive). The GI50 in the experiment on U-251, with RPMI-8226, in the experiment on NCI/ADR-RES, in the experiment with HCT-116, in the experiment on SW-620 and in the experiment on HOP-62 was > 100 µM (inactive) each time. In addition, the GI50 in the experiment with SK-MEL-28, in the experiment on MOLT-4, in the experiment on CAKI-1, with OVCAR-3, in the experiment on NCI-H460 and in the experiment on HCC 2998 was > 100 µM (inactive) in each case. The GI50 with NCI-H522 is > 100 µM (inactive).
As to `O=S1(=O)NC2CCC3NS(=O)(=O)NC4CCC(N1)N4S(=O)(=O)N23` (configuration not stated), the GI50 in the experiment on SNB-75, with T47D, with NCI-H226, in the experiment with SR, in the experiment with SK-MEL-5 and with HL-60 was > 100 µM (inactive) in each case. In addition, the GI50 in the experiment with U-251, with RPMI-8226, with NCI/ADR-RES, with HCT-116, with SW-620 and in the experiment with HOP-62 was > 100 µM (inactive) each time. The GI50 with SK-MEL-28, in the experiment with CAKI-1, with OVCAR-3, in the experiment with NCI-H460, with HCC 2998 and with NCI-H522 was > 100 µM (inactive) throughout.
Take `Cc1cc(S(=O)(=O)N=C2NCC(C)(C)CN2)c(S)cc1Cl`: the GI50 with SNB-75 was 48.5 µM (inactive); in the experiment on T47D it was 42.1 µM (inactive); with NCI-H226 it was 32.1 µM (inactive); with SR it was 37.9 µM (inactive); in the experiment on SK-MEL-5, 17.2 µM (inactive); in the experiment on HL-60, 25.8 µM (inactive). The GI50 in the experiment on U-251 is 23.7 µM (inactive); in the experiment on NCI/ADR-RES, 50.8 µM (inactive); in the experiment on HCT-116, 27.5 µM (inactive); with SW-620 it was 17.9 µM (inactive); in the experiment on HOP-62, 52.6 µM (inactive); with SK-MEL-28, 36.6 µM (inactive). Also, the GI50 in the experiment on CAKI-1 was 52 µM (inactive); in the experiment with OVCAR-3, 35.7 µM (inactive); in the experiment with NCI-H460, 27.3 µM (inactive); in the experiment on HCC 2998 it was 67.6 µM (inactive); with NCI-H522 it was 27.9 µM (inactive).
For the compound `NCCOc1cccc(C2(N3CCCCC3)CCCCC2)c1`, the GI50 with SNB-75 is 32.7 µM (inactive); with T47D it was 52.6 µM (inactive); with NCI-H226, > 100 µM (inactive); in the experiment with SR, 16.1 µM (inactive); with SK-MEL-5 it was 16.5 µM (inactive); in the experiment with HL-60, 25 µM (inactive). The GI50 in the experiment on U-251 was 18.2 µM (inactive); in the experiment with RPMI-8226, 20.9 µM (inactive); in the experiment with NCI/ADR-RES, > 100 µM (inactive); with HCT-116 it was 16.2 µM (inactive); in the experiment with SW-620, 31.5 µM (inactive); in the experiment with HOP-62 it was 92.5 µM (inactive). Besides, the GI50 was 18.7 µM (inactive) with SK-MEL-28; 19.4 µM (inactive) in the experiment on MOLT-4; 94 µM (inactive) in the experiment on CAKI-1; 34.2 µM (inactive) with OVCAR-3; 41.5 µM (inactive) in the experiment on NCI-H460; 19.9 µM (inactive) in the experiment on HCC 2998. In the experiment with NCI-H522, the GI50 was 19.1 µM (inactive).
Consider `CN(C)C(n1cc2c(c1)-c1ccc(Cl)cc1C(c1ccccc1F)=NC2)n1cc2c(c1)-c1ccc(Cl)cc1C(c1ccccc1F)=NC2`, for which the GI50 was 24.7 µM (inactive) with SNB-75; 38.4 µM (inactive) in the experiment on T47D; 13 µM (inactive) in the experiment on NCI-H226; > 100 µM (inactive) in the experiment with SR; > 100 µM (inactive) with SK-MEL-5; 51.3 µM (inactive) with HL-60. The GI50 is > 100 µM (inactive) in the experiment with U-251; > 100 µM (inactive) in the experiment on RPMI-8226; > 100 µM (inactive) in the experiment with NCI/ADR-RES; 61.1 µM (inactive) in the experiment on HCT-116; > 100 µM (inactive) in the experiment on SW-620; > 100 µM (inactive) in the experiment on HOP-62. Besides, the GI50 in the experiment on SK-MEL-28 is 21.5 µM (inactive); in the experiment on MOLT-4, > 100 µM (inactive); in the experiment on CAKI-1, > 100 µM (inactive); with OVCAR-3, 87.5 µM (inactive); with NCI-H460, 51.3 µM (inactive); in the experiment with HCC 2998 it was 82 µM (inactive). The GI50 in the experiment on NCI-H522 is 81.8 µM (inactive).
As for `COc1cc(N(CCC#N)CCC#N)ccc1C(=N/NC(=O)c1cc(Br)ccc1O)/N=N/c1ccc(C)cc1`, the GI50 in the experiment with SNB-75 is 22.6 µM (inactive); in the experiment on T47D it was 4.36 µM (inactive); with NCI-H226 it was 32.4 µM (inactive); with SR, 24.3 µM (inactive); in the experiment on SK-MEL-5, 17.1 µM (inactive); with HL-60, 15.4 µM (inactive). For the same compound, the GI50 is 37.4 µM (inactive) with U-251; 22.2 µM (inactive) with RPMI-8226; 27.1 µM (inactive) in the experiment on NCI/ADR-RES; 16.1 µM (inactive) in the experiment with HCT-116; 29.7 µM (inactive) in the experiment with SW-620; 20.2 µM (inactive) in the experiment with HOP-62. In addition, the GI50 with SK-MEL-28 was 25.1 µM (inactive); with MOLT-4 it was 14 µM (inactive); in the experiment with CAKI-1, 27.9 µM (inactive); in the experiment with OVCAR-3 it was 22.9 µM (inactive); in the experiment with NCI-H460, 15.5 µM (inactive); in the experiment with HCC 2998 it was 19.7 µM (inactive). Further, the GI50 in the experiment with NCI-H522 was 18 µM (inactive).
`COC(=O)[C@H]1ON2O[C@@H](O[C@H]3CCCC[C@@H]3C(C)(C)c3ccccc3)C[C@@H]3CC[C@H]1[C@@]32C`: the GI50 in the experiment on SNB-75, with T47D, in the experiment with NCI-H226, in the experiment with SR, with SK-MEL-5 and with HL-60 was > 100 µM (inactive) in each case. Also, the GI50 with U-251, in the experiment with RPMI-8226, in the experiment with NCI/ADR-RES, in the experiment on HCT-116, in the experiment with SW-620 and in the experiment on HOP-62 was > 100 µM (inactive) each time. Moreover, the GI50 in the experiment on MOLT-4, in the experiment on CAKI-1, in the experiment on OVCAR-3, with NCI-H460, in the experiment with HCC 2998 and in the experiment on NCI-H522 was > 100 µM (inactive) in each case.
For `Nc1c(C(=O)O)nnc2cc(Cl)ccc12`, the GI50 in the experiment on SNB-75, in the experiment with T47D, with NCI-H226, with SR, in the experiment with SK-MEL-5 and with HL-60 was > 100 µM (inactive) in each case. The GI50 with U-251, with NCI/ADR-RES, with HCT-116, with SW-620, with HOP-62 and with MOLT-4 was > 100 µM (inactive) throughout. Also, the GI50 with CAKI-1, in the experiment on OVCAR-3, in the experiment on NCI-H460, in the experiment on HCC 2998 and with NCI-H522 was > 100 µM (inactive) in each case.
